# Data: ChEMBL document CHEMBL4130462, “Natural isoflavone biochanin A as a template for the design of new and potent 3-phenylquinolone efflux inhibitors against Mycobacterium avium” (Eur J Med Chem, 2017)
# Tests used:
# Mycobacterium avium [1] = settings: 104
# Description: Inhibition of multidrug resistance efflux pump in Mycobacterium avium 104 assessed as potentiation of clarithromycin -induced antibacterial activity by measuring clarithromycin MIC at 1/4 MIC incubated for 3 days by MTT assay
# Mycobacterium avium [2] = settings: isolate MAV3
# Mycobacterium avium [3] = settings: isolate MAV2
# Description: Inhibition of multidrug resistance efflux pump in Mycobacterium avium isolate MAV2 assessed as potentiation of clarithromycin -induced antibacterial activity by measuring clarithromycin MIC at 1/2 MIC incubated for 3 days by MTT assay (Rvb = >1024 ug/ml)
# Mycobacterium avium [4] = settings: 104 mc'2 3
# Mycobacterium avium [5] = settings: isolate MAV3; remark: listed apart in the source
# Mycobacterium avium [6] = settings: 104 mc'2 3; remark: listed apart in the source
# Mycobacterium avium [7] = settings: 104 mc'2 3; remark: listed apart in the source
# Mycobacterium avium [8] = settings: 104 mc'2 4
# Mycobacterium avium [9] = settings: isolate MAV3; remark: listed apart in the source
# [10] = test system: Mycobacterium avium subsp. avium ATCC 25291
# Mycobacterium avium [11] = settings: isolate MAV3; remark: listed apart in the source
# Mycobacterium avium [12] = settings: 104 mc'2 4; remark: listed apart in the source
# Mycobacterium avium [13] = settings: isolate MAV1
# Description: Inhibition of multidrug resistance efflux pump in Mycobacterium avium isolate MAV1 assessed as potentiation of ofloxacin-induced antibacterial activity by measuring ofloxacin MIC at 1/2 MIC incubated for 3 days by MTT assay (Rvb = 4 ug/ml)
# Mycobacterium avium [14] = settings: 104; remark: listed apart in the source
# Description: Inhibition of multidrug resistance efflux pump in Mycobacterium avium 104 assessed as potentiation of clarithromycin -induced antibacterial activity by measuring clarithromycin MIC at 1/2 MIC incubated for 3 days by MTT assay
# Mycobacterium avium [15] = settings: 104 mc'2 3; remark: listed apart in the source
# Mycobacterium avium [16] = settings: isolate MAV4
# Mycobacterium avium [17] = settings: 104; remark: listed apart in the source
# Mycobacterium avium [18] = settings: isolate MAV2; remark: listed apart in the source
# Mycobacterium avium [19] = settings: isolate MAV2; remark: listed apart in the source
# Mycobacterium avium [20] = settings: 104 mc'2 4; remark: listed apart in the source
# Mycobacterium avium [21] = settings: isolate MAV3; remark: listed apart in the source
# Mycobacterium avium [22] = settings: 104 mc'2 4; remark: listed apart in the source
# Mycobacterium avium [23] = settings: 104 mc'2 3; remark: listed apart in the source
# Mycobacterium avium [24] = settings: isolate MAV4; remark: listed apart in the source
# Description: Inhibition of multidrug resistance efflux pump in Mycobacterium avium isolate MAV4 assessed as potentiation of clarithromycin -induced antibacterial activity by measuring clarithromycin MIC at 1/4 MIC incubated for 3 days by MTT assay
# [25] = test system: Mycolicibacterium smegmatis; test: Antimycobacterial activity against Mycobacterium smegmatis str. MC2 155 assessed as reduction in bacterial viability incubated for 3 days by MTT assay; type: organism-based; settings: 72 h
# Mycobacterium avium [26] = settings: in vivo, 72 h
# Description: Antimycobacterial activity against Mycobacterium avium 104 mc'2 3 assessed as reduction in bacterial viability incubated for 3 days by MTT assay
# Mycobacterium avium [27] = settings: 104; remark: listed apart in the source
# Mycobacterium avium [28] = settings: 104; remark: listed apart in the source
# Mycobacterium avium [29] = settings: isolate MAV1; remark: listed apart in the source
# Mycobacterium avium [30] = settings: isolate MAV1; remark: listed apart in the source
# Mycobacterium avium [31] = settings: isolate MAV3; remark: listed apart in the source
# Mycobacterium avium [32] = settings: isolate MAV4; remark: listed apart in the source
# Mycobacterium avium [33] = settings: 104 mc'2 4; remark: listed apart in the source
# Mycobacterium avium [34] = settings: isolate MAV1; remark: listed apart in the source
# Mycobacterium avium [35] = settings: isolate MAV4; remark: listed apart in the source
# [36] = test system: Mycobacterium avium subsp. avium ATCC 25291; remark: listed apart in the source
# Description: Inhibition of multidrug resistance efflux pump in Mycobacterium avium ATCC 25291 assessed as potentiation of ethidium bromide-induced antibacterial activity by measuring ethidium bromide MIC at 1/2 MIC incubated for 3 days by MTT assay (Rvb = 50 ug/ml)
# Mycobacterium avium [37] = settings: 104; remark: listed apart in the source
# Mycobacterium avium [38] = settings: 104 mc'2 3; remark: listed apart in the source
# Mycobacterium avium [39] = test: Antimycobacterial activity against Mycobacterium avium isolate MAV4 assessed as reduction in bacterial viability incubated for 3 days by MTT assay; type: organism-based; settings: 72 h
# Mycobacterium avium [40] = settings: isolate MAV1; remark: listed apart in the source
# Description: Inhibition of multidrug resistance efflux pump in Mycobacterium avium isolate MAV1 assessed as potentiation of ofloxacin-induced antibacterial activity by measuring ofloxacin MIC at 1/4 MIC incubated for 3 days by MTT assay (Rvb = 4 ug/ml)
# Mycobacterium avium [41] = settings: 104 mc'2 3; remark: listed apart in the source
# Mycobacterium avium [42] = settings: isolate MAV4; remark: listed apart in the source
# Description: Inhibition of multidrug resistance efflux pump in Mycobacterium avium isolate MAV4 assessed as potentiation of ethidium bromide-induced antibacterial activity by measuring ethidium bromide MIC at 1/4 MIC incubated for 3 days by MTT assay
# Mycobacterium avium [43] = settings: isolate MAV1; remark: listed apart in the source
# Mycobacterium avium [44] = settings: isolate MAV4; remark: listed apart in the source
# Mycobacterium avium [45] = settings: 104 mc'2 4; remark: listed apart in the source
# [46] = test system: Mycobacterium avium subsp. avium ATCC 25291; remark: listed apart in the source
# [47] = Safety index, ratio of MTC for test compound to MTC for chlorpromazine for cytotoxicity in human monocyte-derived macrophages; type: cell-based, Macrophage cell line
# Mycobacterium avium [48] = test: Antimycobacterial activity against Mycobacterium avium isolate MAV1 assessed as reduction in bacterial viability incubated for 3 days by MTT assay; type: organism-based; settings: in vitro, 72 h
# [49] = test system: Mycobacterium avium subsp. avium ATCC 25291; remark: listed apart in the source
# Description: Inhibition of multidrug resistance efflux pump in Mycobacterium avium ATCC 25291 assessed as potentiation of clarithromycin -induced antibacterial activity by measuring clarithromycin MIC at 1/2 MIC incubated for 3 days by MTT assay
# [50] = test system: Mycobacterium avium subsp. avium ATCC 25291; remark: listed apart in the source
# Mycobacterium avium [51] = test: Antimycobacterial activity against Mycobacterium avium isolate MAV2 assessed as reduction in bacterial viability incubated for 3 days by MTT assay; type: organism-based; settings: 72 h
# Mycobacterium avium [52] = settings: 104; remark: listed apart in the source
# [53] = test system: Mycobacterium avium subsp. avium ATCC 25291; remark: listed apart in the source
# Mycobacterium avium [54] = test: Antimycobacterial activity against Mycobacterium avium ATCC 25291 assessed as reduction in bacterial viability incubated for 3 days by MTT assay; type: organism-based; settings: mycobacterium avium subsp. avium atcc 25291, 72 h
# [55] = test system: Mycobacterium avium subsp. avium ATCC 25291; remark: listed apart in the source
# Mycobacterium avium [56] = settings: in vivo, 72 h; remark: listed apart in the source
# Description: Antimycobacterial activity against Mycobacterium avium 104 mc'2 4 assessed as reduction in bacterial viability incubated for 3 days by MTT assay
# Mycobacterium avium [57] = test: Antimycobacterial activity against Mycobacterium avium isolate MAV3 assessed as reduction in bacterial viability incubated for 3 days by MTT assay; type: organism-based; settings: 72 h
# Mycobacterium avium [58] = settings: 104 mc'2 4; remark: listed apart in the source
# Mycobacterium avium [59] = settings: isolate MAV4; remark: listed apart in the source
# Mycobacterium avium [60] = settings: isolate MAV2; remark: listed apart in the source
# Description: Inhibition of multidrug resistance efflux pump in Mycobacterium avium isolate MAV2 assessed as potentiation of ofloxacin-induced antibacterial activity by measuring ofloxacin MIC at 1/4 MIC incubated for 3 days by MTT assay
# [61] = test system: Mycobacterium avium subsp. avium ATCC 25291; remark: listed apart in the source
# Mycobacterium avium [62] = settings: isolate MAV2; remark: listed apart in the source
# Mycobacterium avium [63] = settings: isolate MAV2; remark: listed apart in the source
# Mycobacterium avium [64] = settings: isolate MAV1; remark: listed apart in the source
# Mycobacterium avium [65] = settings: 104 mc'2 4; remark: listed apart in the source
# Mycobacterium avium [66] = settings: isolate MAV3; remark: listed apart in the source
smiles,measurement,setting,value
CCCOc1ccc(-c2cn(CCN3CCCCCC3)c3ccccc3c2=O)cc1,MIC,Mycobacterium avium [1],1 µg/mL
same,MIC,Mycobacterium avium [2],1 µg/mL
same,MIC,Mycobacterium avium [3],< 4 µg/mL
same,MIC,Mycobacterium avium [4],< 4 µg/mL
same,MIC,Mycobacterium avium [5],< 4 µg/mL
same,MIC,Mycobacterium avium [6],128 µg/mL
same,MIC,Mycobacterium avium [7],< 64 µg/mL
same,MIC,Mycobacterium avium [8],1 µg/mL
same,MIC,Mycobacterium avium [9],16 µg/mL
same,MIC,[10],< 0.25 µg/mL
same,MIC,Mycobacterium avium [11],4 µg/mL
same,MIC,Mycobacterium avium [12],< 4 µg/mL
same,MIC,Mycobacterium avium [13],< 0.0625 µg/mL
same,MIC,Mycobacterium avium [14],< 0.125 µg/mL
same,MIC,Mycobacterium avium [15],< 4 µg/mL
same,MIC,Mycobacterium avium [16],< 0.39 µg/mL
same,MIC,Mycobacterium avium [17],< 4 µg/mL
same,MIC,Mycobacterium avium [18],< 0.195 µg/mL
same,MIC,Mycobacterium avium [19],256 µg/mL
same,MIC,Mycobacterium avium [20],2 µg/mL
same,MIC,Mycobacterium avium [21],2 µg/mL
same,MIC,Mycobacterium avium [22],0.39 µg/mL
same,MIC,Mycobacterium avium [23],0.78 µg/mL
same,MIC,Mycobacterium avium [24],4 µg/mL
same,MIC,[25],128 µg/mL
same,MIC,Mycobacterium avium [26],256 µg/mL
same,MIC,Mycobacterium avium [27],4 µg/mL
same,MIC,Mycobacterium avium [28],< 4 µg/mL
same,MIC,Mycobacterium avium [29],1.56 µg/mL
same,MIC,Mycobacterium avium [30],< 4 µg/mL
same,MIC,Mycobacterium avium [31],12.5 µg/mL
same,MIC,Mycobacterium avium [32],< 0.25 µg/mL
same,MIC,Mycobacterium avium [33],< 4 µg/mL
same,MIC,Mycobacterium avium [34],< 0.195 µg/mL
same,MIC,Mycobacterium avium [35],16 µg/mL
same,MIC,[36],< 0.39 µg/mL
same,MIC,Mycobacterium avium [37],< 4 µg/mL
same,MIC,Mycobacterium avium [38],< 4 µg/mL
same,MIC,Mycobacterium avium [39],256 µg/mL
same,MIC,Mycobacterium avium [40],2 µg/mL
same,MIC,Mycobacterium avium [41],< 0.125 µg/mL
same,MIC,Mycobacterium avium [42],3.12 µg/mL
same,MIC,Mycobacterium avium [43],< 0.125 µg/mL
same,MIC,Mycobacterium avium [44],< 4 µg/mL
same,MIC,Mycobacterium avium [45],32 µg/mL
same,MIC,[46],8 µg/mL
same,selectivity ratio,[47],2 to 4
same,MIC,Mycobacterium avium [48],128 µg/mL
same,MIC,[49],< 0.0625 µg/mL
same,MIC,[50],< 0.5 µg/mL
same,MIC,Mycobacterium avium [51],128 µg/mL
same,MIC,Mycobacterium avium [52],8 µg/mL
same,MIC,[53],16 µg/mL
same,MIC,Mycobacterium avium [54],256 µg/mL
same,MIC,[55],< 1 µg/mL
same,MIC,Mycobacterium avium [56],256 µg/mL
same,MIC,Mycobacterium avium [57],128 µg/mL
same,MIC,Mycobacterium avium [58],128 µg/mL
same,MIC,Mycobacterium avium [59],2 µg/mL
same,MIC,Mycobacterium avium [60],2 µg/mL
same,MIC,[61],< 0.5 µg/mL
same,MIC,Mycobacterium avium [62],1 µg/mL
same,MIC,Mycobacterium avium [63],2 µg/mL
same,MIC,Mycobacterium avium [64],< 0.125 µg/mL
same,MIC,Mycobacterium avium [65],32 µg/mL
same,MIC,Mycobacterium avium [66],0.5 µg/mL
